Test results taken from patent publication US20110300142A1, “USE OF ZEBURALINE FOR THE TREATMENT OF AUTOIMMUNE DISEASES OR IMMUNE REJECTION OF TRANSPLANTS” (priority 2007, published 2011).

Experiments:
human lymphocytes = experiment: Proliferation of stimulated human lymphocytes; assay type: cell-based
Experimental: (§1) FIG. 4A show proliferation of stimulated human lymphocytes after five days in culture in the presence of zebularine at different concentrations, FIG. 4B show restoration of inhibited proliferation of stimulated human lymphocytes after five days in culture in the presence of zebularine at two different concentrations and the IDO inhibitor 1-methyl tryptophane at 100 μM and FIG. 4C show proliferation of stimulated rat spleen lymphocytes after four days in culture in the presence of zebularine at different concentrations.
(§2) In an experiment the inventors tested the immunogenicity of genetically engineered rat colon cancer cells expressing rat interleukin 12. These cancer cells have repeatedly been used to immunize rats that create a strong immune response towards the rat tumour cells. […] This was congruent with the changes in expression of IDO (FIG. 3). […] There is a very reproducible induction of IDO (about 20-fold) from different human leukocyte cultures with a slight interindividual variation.

IDO mRNA expression = experiment: qRT-PCR analysis of IDO mRNA expression in rat colon cancer cell lines; assay type: cell-based; details: for increase of the IDO mRNA level: 100 μM zebularine, normalized to HPRT
Experimental: The values given are normalized in relation to the HPRT expression values.
(§3) The treatment with 100 μM of zebularine induced IDO mRNA expression in all three cell lines. A 48-fold increase of the IDO mRNA level in the H1D2WT cell line, a 24-fold increase in the H1D2IL12C46 cell line and a 14-fold increase in the H1D2IL18C2 cell line were detected. […] The inventors know that the 100 μM treatment of tumour cells strongly induces the production of the immunosuppressive molecule IDO but the induction of other T cell immunosuppressive molecules might also be involved, although no evidence has been found for an effect on prostaglandine E2 (PGE2) or nitric oxide (NO) production. It seems that the 100 μM zebularine treatments are not affecting the PGE2 production, the NO production, or the production of tumour antigens.

rat colon cancer cells = experiment: Immunization of rats with zebularine-pretreated tumour cells; proliferative response of spleen cells / immunogenicity; assay type: in vivo
Experimental: as §3, §2

tumour cells = experiment: PGE2, NO and tumour antigen production of treated tumour cells; assay type: cell-based, rat; details: 100 μM zebularine treatment
Experimental: as §3

IDO [1] = experiment: IDO induction in human buffy coat leukocyte cultures; assay type: cell-based; details: different human leukocyte cultures, slight interindividual variation
Source text: as §2

IDO [2] = experiment: IDO production in rat spleen cells; assay type: cell-based; details: similar treatment (100 μM)
Source text: as §2

rat spleen lymphocytes = experiment: Proliferation of stimulated rat spleen lymphocytes; assay type: cell-based; details: rat spleen cells
Experimental: as §1, §2

[3] = mouse, cited from earlier work
[4] = cited from earlier work
p16 gene expression = details: zebularine 100-500 μM; cited from earlier work
bladder carcinoma cells = details: zebularine 500-1000 mg/kg; cited from earlier work
[5] = compared to azacytidine or 2′-deoxy-azacytidine; cited from earlier work

Cn1cc(C[C@H](N)C(=O)O)c2ccccc21 [1-methyl tryptophan, reference compound]
effect on zebularine-induced suppression of proliferation (human lymphocytes; IDO inhibitor added to zebularine-treated stimulated human lymphocytes, 100 μM, five days): can be blocked

O=c1ncccn1[C@@H]1O[C@H](CO)[C@@H](O)[C@H]1O [zebularine, 1-(β-D-Ribofuranosyl)-1,2-dihydropyrimidin-2-one]
production of IDO (IDO mRNA expression; 100 μM): strongly enhance
increase of the IDO mRNA level (IDO mRNA expression; H1D2IL12C46 cell line): 24 fold
increase of the IDO mRNA level (IDO mRNA expression; H1D2IL18C2 cell line): 14 fold
increase of the IDO mRNA level (IDO mRNA expression; H1D2WT cell line): 48 fold
immunogenicity of rat colon cancer cells expressing rat interleukin 12 when used for immunization (rat colon cancer cells; cells pre-treated with 100 μM zebularine): less immunogenic
proliferative response of non-adherent spleen cells stimulated with tumor cells in vitro (rat colon cancer cells; rats immunized with tumour cells pretreated with 100 μM zebularine): very weak proliferative response
NO production (tumour cells): not affecting
PGE2 production (tumour cells): not affecting
production of tumour antigens (tumour cells): not affecting
induction of IDO (IDO [1]): about 20 fold
IDO production (IDO [2]): enhanced IDO production
polyclonal lymphocyte proliferation (human lymphocytes; human buffy coat leukocytes): strong suppression
polyclonal lymphocyte proliferation (rat spleen lymphocytes): strong suppression
fraction of dose absorbed in tissues ([3]; i.v., 100 mg/kg, plasma, red blood cells, liver, kidney, spleen, heart, lung, muscle, Duodenum, Jejunum, Ileum, Colon and Carcass): about 60%
bioavailability after i.v. injection ([3]; i.v.): good
bioavailability for Fat, Brain, Testes, Cecum and Stomach ([3]; i.v.): less
turnover in tissues ([3]; many tissues): quite fast
metabolites [3]: uridine, uracil and dihydrouracil
solubility in water [4]: soluble in water
p16 gene expression (p16 gene expression): induces p16 gene expression
in vivo p16 gene expression (bladder carcinoma cells): induced
tumour volume (bladder carcinoma cells): reduced
stability [5]: stable
toxicity [5]: not very toxic
